Data as given in article PMC5662840, “Effect of Gelsemium elegans and Mussaenda pubescens, the Components of a Detoxification Herbal Formula, on Disturbance of the Intestinal Absorptions of Indole Alkaloids in Caco-2 Cells” (Evidence-based Complementary and Alternative Medicine : eCAM, 2017).

Experiments:
[1] = molecular target: T1, P-gp (Homo sapiens, UniProt P08183); assay: Inhibition transport study: GM with verapamil (P-gp inhibitor) across Caco-2 cells monolayer; type: in vitro ADME; conditions: for decrease of efflux ratio γ: GM + verapamil compared with GM; for Papp A→B / Papp B→A / efflux ratio / Papp A→B at 4 h / Papp B→A at 4 h / efflux ratio at 4 h: human, Caco-2; for Papp A→B / Papp B→A / Papp A→B at 4 h / Papp B→A at 4 h: GM + verapamil (50 μmol), mean ± SEM, n = 3; for Papp A→B / Papp A→B at 4 h: apical-to-basolateral; for Papp B→A / Papp B→A at 4 h: basolateral-to-apical; for efflux ratio / efflux ratio at 4 h: GM + verapamil, read-out: efflux ratio γ (Papp BL-AP / Papp AP-BL)
T1 construct: endogenous in cells; host or cells: Caco-2 cells (cell bank of Chinese Academy of Sciences)
T1 sequence (P08183 whole entry): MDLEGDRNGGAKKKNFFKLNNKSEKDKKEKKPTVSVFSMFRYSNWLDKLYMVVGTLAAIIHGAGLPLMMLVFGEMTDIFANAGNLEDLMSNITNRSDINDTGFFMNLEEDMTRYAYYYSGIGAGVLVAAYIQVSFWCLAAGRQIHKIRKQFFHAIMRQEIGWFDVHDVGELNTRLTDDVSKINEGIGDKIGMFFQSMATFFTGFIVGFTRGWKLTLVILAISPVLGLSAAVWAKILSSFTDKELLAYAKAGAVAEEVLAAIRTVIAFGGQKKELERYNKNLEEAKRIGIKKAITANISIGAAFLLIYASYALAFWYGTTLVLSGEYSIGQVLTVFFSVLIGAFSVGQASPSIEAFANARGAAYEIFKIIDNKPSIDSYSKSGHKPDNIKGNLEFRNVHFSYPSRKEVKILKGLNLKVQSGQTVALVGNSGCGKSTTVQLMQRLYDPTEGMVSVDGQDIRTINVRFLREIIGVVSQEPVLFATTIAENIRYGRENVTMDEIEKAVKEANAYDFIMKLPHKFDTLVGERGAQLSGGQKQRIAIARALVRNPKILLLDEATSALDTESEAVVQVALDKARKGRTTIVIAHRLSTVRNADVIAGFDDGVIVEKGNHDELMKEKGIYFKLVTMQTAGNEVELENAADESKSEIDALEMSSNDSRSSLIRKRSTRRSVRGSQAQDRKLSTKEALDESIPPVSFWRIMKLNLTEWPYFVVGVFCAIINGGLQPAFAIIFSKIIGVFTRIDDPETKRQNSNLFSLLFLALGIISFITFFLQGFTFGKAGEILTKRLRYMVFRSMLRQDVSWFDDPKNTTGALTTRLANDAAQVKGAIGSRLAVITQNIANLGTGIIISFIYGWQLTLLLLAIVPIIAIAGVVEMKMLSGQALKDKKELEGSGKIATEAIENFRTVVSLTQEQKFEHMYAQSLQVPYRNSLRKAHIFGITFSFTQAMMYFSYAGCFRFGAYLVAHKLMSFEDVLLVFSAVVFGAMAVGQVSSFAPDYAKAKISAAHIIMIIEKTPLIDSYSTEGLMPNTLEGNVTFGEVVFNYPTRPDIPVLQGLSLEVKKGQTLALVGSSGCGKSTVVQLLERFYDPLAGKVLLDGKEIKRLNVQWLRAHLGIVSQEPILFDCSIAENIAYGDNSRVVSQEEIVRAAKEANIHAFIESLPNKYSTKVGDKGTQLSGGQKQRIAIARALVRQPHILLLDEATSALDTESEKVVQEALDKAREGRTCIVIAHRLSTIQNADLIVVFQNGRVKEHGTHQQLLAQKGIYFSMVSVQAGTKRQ
Experimental: (§1) As efflux transporters (P-gp and MRP2) are expressed on the apical side of Caco-2 cells, the absorption or efflux transport of indole alkaloids across this model was investigated in the presence of efflux transporters inhibitors. A selective P-gp inhibitor, verapamil (50 μmol), was added to GM. 10 μmol ciclosporin (a P-gp and MRP2 inhibitor) was also added to GM. The control group was set as well. After the preincubation, the different mixes were performed in Caco-2 cells monolayer. Transport studies were undertaken as mentioned above in the absorptive direction (AP-BL) and the efflux direction (BL-AP), separately. The samples were taken at 0, 1, 2, 3, and 4 h for LC-MS/MS analysis. The absorption and efflux transport apparent permeability (Papp) of indole alkaloids were determined.
(§2) All experiments were run in triplicate. […] The apparent permeability coefficients (Papp) for both the absorptive direction (AP→BL) and the efflux direction (BL→AP) studies were calculated according to the following:(3) Papp=dQ/dt/A×C0, where dQ/dt (μg·min^−1) is the drug permeation rate, A (cm^2) is the filter surface area, and C0 (μg·mL^−1) is the initial concentration in the donor chamber at t = 0 min.
(§3) The efflux ratio (γ) was calculated with the following equation:(4) γ=PappBL-AP/PappAP-BL.
(§4) The γ values are used to assess the effect of efflux transporters on the test compounds in the presence and absence of efflux transporters inhibitors.

[2] = Bidirectional transport of indole alkaloids from GE and GM extracts across Caco-2 cells monolayer; type: in vitro ADME, Human; conditions: human; for efflux ratio / efflux ratio at 4 h: Caco-2, GM without inhibitor, read-out: efflux ratio γ (Papp BL-AP / Papp AP-BL); for Papp A→B / Papp B→A / Papp A→B at 4 h / Papp B→A at 4 h: Caco-2, GM (control group), mean ± SEM, n = 3; for Papp A→B / Papp A→B at 4 h: apical-to-basolateral; for Papp B→A / Papp B→A at 4 h: basolateral-to-apical
Experimental: (§5) Human colon adenocarcinoma cell lines (Caco-2) were obtained from the cell bank of Chinese Academy of Sciences (Beijing, China). Cells were routinely grown in DMEM supplemented with 10% (v/v) fetal bovine serum, 1% (v/v) glutamine, 1% (v/v) nonessential amino acid solution, and 100 U/mL penicillin-streptomycin solution under a humidified atmosphere of 5% CO2 at 37°C. The medium was replaced every 2 days after incubation. After reaching 80% confluence, cells were passaged at a split ratio of 1 : 5, using 0.05% trypsin-EDTA. For the transport experiments, the cells of passages were seeded at a density of 1.0 × 10^6 cells/cm^2 on permeable polycarbonate inserts in 6-well tissue culture plates (Transwell Polycarbonate Membrance Insert 3414, Corning, USA), which has a surface area of 4.2 cm^2. Culture medium was changed every two days for 14 days and daily thereafter for the next 7 days. In our culture condition, cells monolayer, after seeding approximately between 19 and 21 days, usually was available for transport experiments.
(§6) The extracts, including GE and GM, were freshly prepared to the desired final concentration in DMSO. The final concentrations of DMSO in the incubation system were controlled within 0.1% (v/v) in all subsequent experiments. All transport experiments were conducted at 37°C unless specified otherwise. Transport of indole alkaloids across the Caco-2 cells monolayer was studied using monolayer of 19–21 days after seeding. Before the experiment, the monolayer was washed twice and preincubated with the blank HBSS for 1 h. Thereafter the HBSS solution on both sides of the cells monolayer was aspirated.
(§7) Transport studies were conducted in the absorptive direction (apical- (AP-) basolateral (BL)) and the efflux direction (BL-AP), separately. For determination of AP to BL transport, 2.5 mL of sample solutions was added to the AP side, respectively, and 2.5 mL of blank HBSS was added to the BL side. For determination of BL to AP transport, 2.5 mL of sample solutions was added to the BL side, respectively, and 2.5 mL of blank HBSS was added to the AP side. The cells monolayer was then put into a shaker at 50 rpm during the transport process. 400 μL of samples was taken for LC-MS/MS analysis at 0, 1, 2, 3, and 4 h after incubation, followed by an immediate replacement of 400 μL of the same solutions. At the end of the transport experiment, integrity of the monolayer was monitored by TEER value.
(§8) 400 μL of samples obtained from the Caco-2 cells transport assays was dried under nitrogen, and the residues were dissolved in 800 μL of 50% methanol. Followed by centrifugation at 12,000 rpm for 15 min, the supernatants were directly analyzed with UPLC-ESI-MS/MS. Chromatography-mass spectrum conditions were set as described above. The method researches of LC-MS/MS were similar to those described previously. Regression equations of gelsemine, humantenidine, koumine, gelsenicine, gelsevirine, and humantenine were Y = 23675X − 2864 (r = 0.9995), Y = 66331X + 13558 (r = 0.9995), Y = 6268X − 1503 (r = 0.9996), Y = 91160X − 10147 (r = 0.9998), Y = 32116X − 3951 (r = 0.9990), and Y = 36977X + 13830 (r = 0.9994), respectively.
as §2, §3

[3] = test system: Caco-2 cells monolayer; assay: as above; type: in vitro ADME, Human; conditions: for efflux Papp relative to absorptive Papp: GM sample; for efflux ratio γ (Papp BL-AP / Papp AP-BL): GM without inhibitor; for decrement of absorbance percentage: GM (GE combined with MP) versus GE sample
Experimental: as §5, §6, §7, §8, §2, §3

[4] = test system: P-gp and MRP2; assay: Inhibition transport study: GM with ciclosporin (P-gp and MRP2 inhibitor) across Caco-2 cells monolayer; type: in vitro ADME, Human; conditions: for decrease of efflux ratio γ: GM + ciclosporin compared with GM; for Papp A→B / Papp B→A / efflux ratio / Papp A→B at 4 h / Papp B→A at 4 h / efflux ratio at 4 h: human, Caco-2; for Papp A→B / Papp B→A / Papp A→B at 4 h / Papp B→A at 4 h: GM + ciclosporin (10 μmol), mean ± SEM, n = 3; for Papp A→B / Papp A→B at 4 h: apical-to-basolateral; for Papp B→A / Papp B→A at 4 h: basolateral-to-apical; for efflux ratio / efflux ratio at 4 h: GM + ciclosporin, read-out: efflux ratio γ (Papp BL-AP / Papp AP-BL)
Experimental: as §1, §2, §3, §4

Row | Compound | decrease of efflux ratio γ [1] [%] | Papp A→B [1] [×10⁻⁶ cm/s] | Papp B→A [1] [×10⁻⁶ cm/s] | efflux ratio [1] | efflux ratio [2] | Papp A→B [2] [×10⁻⁶ cm/s] | Papp B→A [2] [×10⁻⁶ cm/s] | efflux Papp relative to absorptive Papp [3] | efflux ratio γ (Papp BL-AP / Papp AP-BL) [3] | decrease of efflux ratio γ [4] [%] | Papp A→B [4] [×10⁻⁶ cm/s] | Papp B→A [4] [×10⁻⁶ cm/s] | efflux ratio [4] | decrement of absorbance percentage ([3]; apical to basolateral) | Papp A→B at 4 h [1] [×10⁻⁶ cm/s] | Papp B→A at 4 h [1] [×10⁻⁶ cm/s] | efflux ratio at 4 h [1] | efflux ratio at 4 h [2] | Papp A→B at 4 h [2] [×10⁻⁶ cm/s] | Papp B→A at 4 h [2] [×10⁻⁶ cm/s] | other results
1 | CCC1=NC2CC3(C(=O)N(OC)c4ccccc43)C3OCC2C1C3O (centres unmarked) [Humantenidine, humantenidine] | 43.69 | 3.14 ± 1.19 | 6.17 ± 0.57 | 1.65 | > 2 | 0.14 ± 0.044 | 0.41 ± 0.05 | approximately 2.0 times | 2.93 | 42.32 | 4.48 ± 1.06 | 7.57 ± 0.36 | 1.69 | – | – | – | – | – | – | – | absorbance percentage, rank among all indole alkaloids ([3]; GE sample, apical to basolateral, during 4 h): highest
2 | C/C=C1\CN(C)[C@H]2C[C@@]3(C(=O)N(OC)c4ccccc43)[C@H]3C[C@@H]1[C@@H]2CO3 [Humantenine, humantenine] | 8.90 | 437 ± 71.2 | 580 ± 109 | 1.33 | 1.46 | 6.93 ± 1.59 | 9.87 ± 1.75 | – | – | 15.07 | 515 ± 101 | 637 ± 90.1 | 1.24 | about 12% | – | – | – | – | – | – | –
3 | C=CC12CN(C)C3C4COC(CC41)C1(C(=O)N(OC)c4ccccc41)C32 (centres unmarked) [Gelsevirine, gelsevirine] | 36.00 | 392 ± 58.1 | 503 ± 93 | 1.28 | > 2 | 6.33 ± 2.31 | 12.7 ± 2.67 | approximately 2.0 times | 2.00 | 34.00 | 464 ± 93.8 | 614 ± 56.8 | 1.32 | over 3% | – | – | – | – | – | – | –
4 | CCC1=N[C@H]2C[C@@]3(C(=O)N(OC)c4ccccc43)[C@H]3C[C@@H]1[C@@H]2CO3 [Gelsenicine, gelsenicine] | 41.42 | – | – | – | – | – | – | approximately 2.0 times | 2.39 | 40.59 | – | – | – | about 12% | 86.6 ± 15.8 | 122 ± 26.1 | 1.4 | > 2 | 2.8 ± 0.11 | 6.69 ± 1.35 | Papp A→B at 4 h [4]: 101 ± 28.4 ×10⁻⁶ cm/s; Papp B→A at 4 h [4]: 143 ± 10.8 ×10⁻⁶ cm/s; efflux ratio at 4 h [4]: 1.42
5 | C=C[C@@]12CN(C)[C@H]3C[C@]14C(=Nc1ccccc14)[C@H]1C[C@@H]2[C@@H]3CO1 [Koumine, koumine] | – | 348 ± 67.4 | 416 ± 80.5 | 1.19 | ~1 | 11.8 ± 4.01 | 13.4 ± 3.84 | – | 1.13 | – | 440 ± 93.3 | 524 ± 91.5 | 1.19 | – | – | – | – | – | – | – | –
6 | C=C[C@]12CN(C)[C@@H]3[C@H]4CO[C@H](C[C@H]41)[C@]1(C(=O)Nc4ccccc41)[C@@H]32 [Gelsemine, gelsemine] | – | – | – | – | – | – | – | – | 1.07 | – | – | – | – | – | 30.3 ± 7.45 | 33.2 ± 8 | 1.09 | ~1 | 6.83 ± 2.64 | 7.33 ± 2.77 | Papp A→B at 4 h [4]: 35.6 ± 7.63 ×10⁻⁶ cm/s; Papp B→A at 4 h [4]: 39.1 ± 8.91 ×10⁻⁶ cm/s; efflux ratio at 4 h [4]: 1.1
